Test results reported in patent publication US20090238808A1, “Process for the identification of novel enzyme interacting compounds” (priority 2005, published 2009).

Legend:
Assay in all cases: In-lysate competition binding with kinobeads, Jurkat lysate, iTRAQ MS, relative intensity of identified proteins (Table 22)
Conditions in all cases: DMSO control = 1.0
[1] = target: T1, proteins captured on kinobeads from Jurkat cell lysate (Homo sapiens, UniProt O14965)
T1 construct: endogenous in cells; host or cells: Jurkat clone E6-1 lysate
Method: (§1) This example illustrates competition binding in cell lysates (see particularly the third aspect of the invention). A test compound, Bisindolylmaleimide VIII (Bis VIII, a well known kinase inhibitor; Davies et al., 2000. Specificity and mechanism of action of some commonly used protein kinase inhibitors. Biochemical Journal 351 (Pt 1): 95-105) was added to a cell lysate thereby allowing the test compound to bind to the target proteins in the lysate. Then the lysate was contacted with the kinobeads affinity matrix to capture remaining free target proteins. The proteins bound to the kinobeads matrix were then eluted with detergent-containing buffer, separated on a SDS-polyacryamide gel and analyzed by immunodetection (Western blots) or mass spectrometry detection.
(§2) For the quantitative detection of proteins by mass spectrometry proteins were eluted from the affinity matrix and subsequently separated by SDS-Polyacrylamide gel elecrophoresis. Suitable gel areas were cut out and subjected to in-gel proteolytic digestion with trypsin.
(§3) Four tryptic digest samples (corresponding to three different Bis VIII concentrations in the lysate and one DMSO control) were labeled with ITRAQ reagents and the combined samples were analyzed in a single LC-MS/MS mass spectrometry analysis followed by peak quantification in the MS/MS spectrum (Ross et al., 2004. Multiplexed protein quantitation in Saccharomyces cerevisiae using amine-reactive isobaric tagging reagents. Mol. Cell. Proteomics 3(12): 1154-1169). […] Binding curves for individual kinases are shown (FIG. 5). The relative intensity 50 (RI50) values representing the affinity of kinase-compound pairs are similar to IC50 values reported by kinase enzyme assays (Davies et al., 2000. Specificity and mechanism of action of some commonly used protein kinase inhibitors. Biochemical Journal 351 (Pt 1): 95-105).
(§4) Aliqots of Jurkat lysate (10 mg protein) were incubated with different Bis VIII concentrations for one hour at 4° C. (0.025 μM, 0.074 μM, 0.22 μM, 0.67 μM, 2.0 μM and 6.0 μM final concentration of Bis VIII). To this end Bis VIII solutions were prepared in 100% DMSO as solvent that corresponded to 200 fold desired final Bis VIII concentration (Bis VIII from Alexis Biochemicals cat. number ALX 270-056). Five μl of these solutions were added to 1 ml of lysate resulting in the indicated final concentrations. For a control experiment 5 μl of DMSO without Bis VIII were used.
(§5) To each preincubated lysate sample 40 μl of kinobeads (see example 1) were added and incubated for one hour at 4° C. During the incubation the tubes were rotated on an end-over-end shaker (Roto Shake Genie, Scientific Industries Inc.). Beads were collected by centrifugation, transfered to Mobicol-columns (MoBiTech 10055) and washed with 10 ml 1×DP buffer containing 0.4% NP40 detergent, followed by a wash with 5 ml 1×DP buffer with 0.2% NP40. To elute the bound proteins, 100 μl 2×SDS sample buffer was added, the column was heated for 30 minutes at 50° C. and the eluate was transferred to a microfuge tube by centrifugation. Proteins were then separated by SDS-Polyacrylamide electrophoresis (SDS-PAGE). The composition and preparation of buffers is described in example 2.
(§6) The peptide extracts of samples treated with different concentrations of the test compound (0.074 μM, 0.22 μM and 0.67 μM Bis VIII) and the solvent control (0.5% DMSO) were treated with different isomers of the isobaric tagging reagent (iTRAQ Reagents Multiplex Kit, part number 4352135, Applied Biosystems, Foster City, Calif., USA). The iTRAQ reagents are a set of multiplexed, amine-specific, stable isotope reagents that can label all peptides in up to four different biological samples enabling simultaneous identification and quantitation of peptides. The iTRAQ reagents were used according to instructions provided by the manufacturer. […]

[2] = target: T2, proteins captured on kinobeads from Jurkat cell lysate (Homo sapiens, UniProt P07947)
T2 construct: endogenous in cells; host or cells: Jurkat clone E6-1 lysate
Method: as §1, §2, §3, §4, §5, §6

[3] = target: T3, proteins captured on kinobeads from Jurkat cell lysate (Homo sapiens, UniProt P12931)
T3 construct: endogenous in cells; host or cells: Jurkat clone E6-1 lysate
Method: as §1, §2, §3, §4, §5, §6

[4] = target: T4, proteins captured on kinobeads from Jurkat cell lysate (Homo sapiens, UniProt P15559)
T4 construct: endogenous in cells; host or cells: Jurkat clone E6-1 lysate
Method: as §1, §2, §3, §4, §5, §6

[5] = target: T5, proteins captured on kinobeads from Jurkat cell lysate (Homo sapiens, UniProt P48729)
T5 construct: endogenous in cells; host or cells: Jurkat clone E6-1 lysate
Method: as §1, §2, §3, §4, §5, §6

[6] = target: T6, proteins captured on kinobeads from Jurkat cell lysate (Homo sapiens, UniProt P50613)
T6 construct: endogenous in cells; host or cells: Jurkat clone E6-1 lysate
Method: as §1, §2, §3, §4, §5, §6

[7] = target: T7, proteins captured on kinobeads from Jurkat cell lysate (Homo sapiens, UniProt P51451)
T7 construct: endogenous in cells; host or cells: Jurkat clone E6-1 lysate
Method: as §1, §2, §3, §4, §5, §6

[8] = target: T8, proteins captured on kinobeads from Jurkat cell lysate (Homo sapiens, UniProt Q00535)
T8 construct: endogenous in cells; host or cells: Jurkat clone E6-1 lysate
Method: as §1, §2, §3, §4, §5, §6

[9] = target: T9, proteins captured on kinobeads from Jurkat cell lysate (Homo sapiens, UniProt Q08881)
T9 construct: endogenous in cells; host or cells: Jurkat clone E6-1 lysate
Method: as §1, §2, §3, §4, §5, §6

[10] = target: T10, proteins captured on kinobeads from Jurkat cell lysate (Homo sapiens, UniProt Q13557)
T10 construct: endogenous in cells; host or cells: Jurkat clone E6-1 lysate
Method: as §1, §2, §3, §4, §5, §6

[11] = target: T11, proteins captured on kinobeads from Jurkat cell lysate (Homo sapiens, UniProt Q96GD4)
T11 construct: endogenous in cells; host or cells: Jurkat clone E6-1 lysate
Method: as §1, §2, §3, §4, §5, §6

[12] = target: T12, proteins captured on kinobeads from Jurkat cell lysate (Homo sapiens, UniProt Q9H0K1)
T12 construct: endogenous in cells; host or cells: Jurkat clone E6-1 lysate
Method: as §1, §2, §3, §4, §5, §6

[13] = target: T13, proteins captured on kinobeads from Jurkat cell lysate (Homo sapiens, UniProt Q9HCP0)
T13 construct: endogenous in cells; host or cells: Jurkat clone E6-1 lysate
Method: as §1, §2, §3, §4, §5, §6

[14] = target: T14, proteins captured on kinobeads from Jurkat cell lysate (Homo sapiens, UniProt Q9UHD2)
T14 construct: endogenous in cells; host or cells: Jurkat clone E6-1 lysate
Method: as §1, §2, §3, §4, §5, §6

[15] = target: T15, proteins captured on kinobeads from Jurkat cell lysate (Homo sapiens, UniProt Q9Y478)
T15 construct: endogenous in cells; host or cells: Jurkat clone E6-1 lysate
Method: as §1, §2, §3, §4, §5, §6

Cn1cc(C2=C(c3cn(CCCN)c4ccccc34)C(=O)NC2=O)c2ccccc21 [Bis VIII, Bisindolylmaleimide VIII]
Relative Intensity, AurA (STK6) ([1]; 0.074 uM in lysate): 0.90 | Relative Intensity, AurA (STK6) ([1]; 0.67 uM in lysate): 0.87 | Relative Intensity, YES (YES1) ([2]; 0.074 uM in lysate): 0.82 | Relative Intensity, YES (YES1) ([2]; 0.67 uM in lysate): 0.87 | Relative Intensity, SRC ([3]; 0.074 uM in lysate): 0.93 | Relative Intensity, SRC ([3]; 0.67 uM in lysate): 0.94 | Relative Intensity, NQO1 ([4]; 0.074 uM in lysate): 0.84 | Relative Intensity, NQO1 ([4]; 0.67 uM in lysate): 0.87 | Relative Intensity, CK1a (CSNK1A1) ([5]; 0.074 uM in lysate): 0.97 | Relative Intensity, CK1a (CSNK1A1) ([5]; 0.67 uM in lysate): 1.02 | Relative Intensity, CDK7 ([6]; 0.074 uM in lysate): 1.03 | Relative Intensity, CDK7 ([6]; 0.67 uM in lysate): 0.89 | Relative Intensity, BLK ([7]; 0.074 uM in lysate): 0.90 | Relative Intensity, BLK ([7]; 0.67 uM in lysate): 0.83 | Relative Intensity, CDK5 ([8]; 0.074 uM in lysate): 0.92 | Relative Intensity, CDK5 ([8]; 0.67 uM in lysate): 0.95 | Relative Intensity, ITK ([9]; 0.074 uM in lysate): 0.80 | Relative Intensity, ITK ([9]; 0.67 uM in lysate): 0.91 | Relative Intensity, CaMK2d ([10]; 0.074 uM in lysate): 0.91 | Relative Intensity, CaMK2d ([10]; 0.67 uM in lysate): 0.88 | Relative Intensity, AurB (AURKB) ([11]; 0.074 uM in lysate): 0.95 | Relative Intensity, AurB (AURKB) ([11]; 0.67 uM in lysate): 0.97 | Relative Intensity, QIK (SNF1LK2) ([12]; 0.074 uM in lysate): 0.93 | Relative Intensity, QIK (SNF1LK2) ([12]; 0.67 uM in lysate): 0.98 | Relative Intensity, CK1g1 (CSNK1G1) ([13]; 0.074 uM in lysate): 1.01 | Relative Intensity, CK1g1 (CSNK1G1) ([13]; 0.67 uM in lysate): 0.96 | Relative Intensity, TBK1 ([14]; 0.074 uM in lysate): 1.05 | Relative Intensity, TBK1 ([14]; 0.67 uM in lysate): 1.14 | Relative Intensity, PRKAB1 ([15]; 0.074 uM in lysate): 0.91 | Relative Intensity, PRKAB1 ([15]; 0.67 uM in lysate): 0.79
